System: E. Coli (strain DH5α)
Experiment: Testing of antimicrobial RXPIX: bacterial viability by turbidity of LB Broth
Type: cell-based
Settings: 15 minutes fluid exchange at room temperature, then 2 ml LB Broth, 20 hours at 37° C., three replicates
Procedure: For each sample three replicate experiments were preformed. Briefly, a drop of the bacterium E. Coli (strain DH5α) was mixed with a small amount of a medium (Luria-Bertani Broth, or LB Broth) and allowed to exchange fluid with the floss device 10, which is named “RXPIX” for identification purposes in the following tests, for 15 minutes. After this period of time, 2 ml of LB Broth was added to each test tube and the bacteria were allowed to grow for 20 hours at 37° C. Observing the turbidity of the broth at this time assessed bacterial viability. Bacterial viability was also assessed analytically by measuring the absorbance of visible light (600 nm).
B. On Day 2, 1 micro liter of E. Coli cells was transferred to each 12×75 mm round bottom test tube for antimicrobial testing. In addition, 5 micro liters of fresh LB Broth were added to each test tube to allow for fluid exchange. […]
D. After 20 hours of incubation, bacterial viability was assessed. […]
E. To further characterize bacterial growth, the absorbance of 600 nm visible light was used to analytically measure turbidity. The broth from each sample was measured with a spectrophotometer equipped with a lamp emitting visible light.

CCO [70% ethanol, ethanol]
bacterial growth (turbidity of the LB Broth): no bacterial growth
bacterial growth (turbidity of the LB Broth) (listed as 70% ethyl alcohol): not showing bacterial growth
